Data published in patent US5948791A, “Quinoline derivatives for treating malaria” (Hoffmann-La Roche Inc., priority 1995, dated 1999).
In brackets after ≈: the same amount, converted by molar mass. Where two headings read alike, the source gives them in different places.

Experiments:
[1] = system: Plasmodium falciparum strain NF54; test: Growth inhibition of Plasmodium falciparum NF54 (chloroquine-sensitive) in vitro, [G-3H]-hypoxanthin incorporation; assay type: cell-based; details: read-out: IC50 for P. falciparum NF54
From the text: (§1) The ratio of the growth inhibition of a strain which is especially resistant to chloroquine and of a strain which is sensitive to chloroquine gives as the "resistance index" a measurement for the absence of a cross-resistance with chloroquine. Since, for all novel compounds the resistance index lies between 0.7 and 2.5, they inhibit the growth of sensitive as well as resistant strains of the malaria pathogen equally effectively. They are accordingly also suitable for the prophylaxis of a malaria disease and also for the treatment of a malaria disease even when chloroquine is ineffective. The good activity against malaria pathogens is also shown in animal experiments. The effective doses measured after oral and subcutaneous administration to mice infected with malaria pathogens are shown in Table 2 hereinafter.
(§2) Test method for the determination of the activity against Plasmodium falciparum in vitro
(§3) The preparations are tested on intraerythrocytary stages of Plasmodium falciparum from asynchronous cultures according to the method of Desjardin et al. (Desjardins, R. E. et al: Quantitative assessment of antimalarial activity in vitro by a semiautomated microdilution technique. Antimicrob. Agents Chemother. 16, 710-718, (1979)).
(§4) The culture medium consists of RPMI 1640 with the addition of 25 mM HEPES, 25 mM NaHCO3, 100 μg/ml neomycin and […] (A^+). Human-A^+ erythrocytes are used as the Plasmodium falciparum host cells. The parasites are maintained at 37° C. in an atmosphere of 3% O2, 4% CO2, 93% N2 and 95% relative humidity.
(§5) In order to determine the activity, the preparations are dissolved in DMSO, pre-diluted in the culture medium to a suitable starting concentration and subsequently titrated-out on to microtitre plates in the 2nd stage over 6-7 steps. After the addition of the parasite culture (0.7% parasitemia in 2.5% erythrocyte suspension) the test plates are incubated under the conditions given above for 72 h. The parasite growth in the different preparation concentrations is determined using [G-^3 H]-hypoxanthin incorporation compared to untreated control cultures on the same test plates. The 50% growth inhibition (IC50) is calculated according to logit regression analysis from the resulting dosage-activity curve.
(§6) The preparations are tested on at least one chloroquine-resistant and one chloroquine-sensitive Plasmodium falciparum strain. Additional sensitive and resistant strains are included for further characterization.

Plasmodium falciparum K1 = test: Growth inhibition of Plasmodium falciparum K1 (chloroquine-resistant) in vitro, [G-3H]-hypoxanthin incorporation; assay type: cell-based, Plasmodium falciparum (strain K1); details: for IC50: Plasmodium falciparum, K1, 72 h, read-out: IC50 for P. falciparum K1; for Resistance index: ratio of the IC50 for K1 and the IC50 for NF54
From the text: as §1, §2, §3, §4, §5, §6

Plasmodium berghei = test: animal or person; assay type: in vivo, Plasmodium berghei (strain ANKA) in mice; details: Plasmodium berghei
Protocol: Test method for the determination of the activity against Plasmodium berghei in vivo
The preparations are tested on mice infected with malaria pathogens (Plasmodium berghei). Male albino mice (IBM:MORO(SPF), FUELLINSDORF) weighing about 25 g are used as the test animals. They are kept in climatized rooms at 21-22° C. in groups of 5 animals per cage. They receive ad libitum a diet feed with a low PABA content (NAFAG FUTTER " No. 9009 PAB-45, PABA content 45 mg/kg) and drinking water. On the first day of the test (D0) the test animals are infected with Plasmodium berghei (strain ANKA). For this there is used heparinized blood of a donor mouse with about 30% parasitemia, which is diluted with physiological saline such that it contains 10^8 parasitized erythrocytes per ml. 0.2 ml of this suspension is injected intravenously (i.v.) into the mice to be treated and into the control mice.
The substances to be tested are dissolved or suspended in distilled water or in a mixture of 7% Tween 80, 3% alcohol (96%) and water. Usually, 0.25 ml of this solution or suspension is administered once subcutaneously and perorally to groups of 5 test animals. Treatment is effected 24 hours after the infection. 10 control animals are treated in the same manner with solvent or suspension medium per test.
All substances are tested in a first test in a single dosage of 10 mg/kg. Only those substances which in this test (10 mg/kg) have shown a parasitaemia reduction of 90% are used for the titration. Suitable dilutions of the test substance can be used to obtain an accurate titration of the activity.
48 hours after the treatment (D+3) blood smears are prepared from all animals using blood from tail veins and are stained with giemsa. […] The difference in the average values of the infection rates of control group (100%) and treated groups is calculated and expressed as a percentage reduction (GI%). The ED50 or ED90 is determined mathematically by means of the JMP programme (nonlinear fit). The ED50 (ED90) in mg/kg is that dose which after single administration reduces the average erythrocyte infection rate by 50% (90%) in comparison to the control group.

[2] = chloroquine-sensitive strain NF54, 72 h
[3] = po, single peroral dose of 10 mg/kg, mice, blood smears 48 h after treatment, read-out: Growth inhibition in % after po administration (GI%, percentage reduction of the parasitemia)
[4] = sc, single subcutaneous dose of 10 mg/kg, mice, blood smears 48 h after treatment, read-out: Growth inhibition in % after sc administration (GI%, percentage reduction of the parasitemia)

SMILES	IC50 ([1]; NF54, 72 h) [µg/mL]	IC50 (Plasmodium falciparum K1) [µg/mL]	Resistance index (Plasmodium falciparum K1)	inhibition in vivo at 10 mg/kg (Plasmodium berghei; in Mus musculus, po, 48 h, read-out: Growth inhibition in % after po administration (GI%, percentage reduction of the parasitemia)) [%]	inhibition in vivo at 10 mg/kg (Plasmodium berghei; in Mus musculus, sc, 48 h, read-out: Growth inhibition in % after sc administration (GI%, percentage reduction of the parasitemia)) [%]	IC50 [1, 2] [µg/mL]	inhibition in vivo at 10 mg/kg (Plasmodium berghei; [3]) [%]	inhibition in vivo at 10 mg/kg (Plasmodium berghei; [4]) [%]
CCN(CC)CCCC(C)Nc1ccnc2cc(Cl)ccc12 (stereo not drawn) [Chloroquine diphosphate, reference compound]	0.0067	0.095	14.2	99.9	99.9			
CC(C)(CNc1ccnc2cc(Cl)ccc12)NCc1ccc(Cl)c(Cl)c1 [Example 3, N1-(7-Chloro-quinolin-4-yl)-N2-(3,4-dichloro-benzyl)-2-methyl-propane-1,2-diamine]		0.0183 (≈ 0.0448 µM)	1.3			0.0137 (≈ 0.0335 µM)	96	8
CC(C)(CNc1ccnc2cc(Cl)ccc12)NCc1cccc(Cl)c1 [Example 4, N1-(7-Chloro-quinolin-4-yl)-N2-(3-chloro-benzyl)-2-methyl-propane-1,2-diamine]		0.0088 (≈ 0.0235 µM)	1.0			0.0091 (≈ 0.0243 µM)	68	73
CC(C)(CNc1ccnc2cc(Cl)ccc12)NCc1ccc(Cl)cc1Cl [Example 5, N1-(7-Chloro-quinolin-4-yl)-N2-(2,4-dichloro-benzyl)-2-methyl-propane-1,2-diamine]		0.0572 (≈ 0.14 µM)	1.2			0.0493 (≈ 0.121 µM)	83	69
CC(C)(CNc1ccnc2cc(Cl)ccc12)NCc1ccc(F)c(Cl)c1 [Example 6, N1-(7-Chloro-quinolin-4-yl)-N2-(3-chloro-4-fluoro-benzyl)-2-methyl-propane-1,2-diamine]		0.0145 (≈ 0.037 µM)	1.4			0.0103 (≈ 0.0263 µM)	99.7	95
CC(C)(CNc1ccnc2cc(Cl)ccc12)NCc1ccc(Cl)c(C(F)(F)F)c1 [Example 7, N1-(7-Chloro-quinolin-4-yl)-N2-(4-chloro-3-trifluoromethyl-benzyl)-2-methyl-propane-1,2-diamine]		0.0349 (≈ 0.0789 µM)	1.5			0.024 (≈ 0.0543 µM)	96	54
CC(C)(CNc1ccnc2cc(Cl)ccc12)NCc1cccc(C(F)(F)F)c1 [Example 8, N1-(7-Chloro-quinolin-4-yl)-N2-(3-trifluoromethyl-benzyl)-2-methyl-propane-1,2-diamine]		0.0189 (≈ 0.0463 µM)	1.2			0.0161 (≈ 0.0395 µM)	99	95
CC(C)(CNc1ccnc2cc(Cl)ccc12)NCc1ccc(C(F)(F)F)cc1 [Example 9, N1-(7-Chloro-quinolin-4-yl)-N2-(4-trifluoromethyl-benzyl)-2-methyl-propane-1,2-diamine]		0.0167 (≈ 0.0409 µM)	1.3			0.0132 (≈ 0.0324 µM)	66	74
CC(C)(CNc1ccnc2cc(Cl)ccc12)NCc1cc(C(F)(F)F)cc(C(F)(F)F)c1 [Example 10, N1-(7-Chloro-quinolin-4-yl)-N2-(3,5-bis-trifluoromethyl-benzyl)-2-methyl-propane-1,2-diamine]		0.0504 (≈ 0.106 µM)	1.0			0.0517 (≈ 0.109 µM)	99.2	99.3
CC(C)(CNc1ccnc2cc(Cl)ccc12)NCc1ccncc1 [Example 11, N1-(7-Chloro-quinolin-4-yl)-N2-(pyridin-4-yl-methyl)-2-methyl-propane-1,2-diamine]		0.048 (≈ 0.141 µM)	1.6			0.0293 (≈ 0.086 µM)	99.9	99.8
CC(C)(CNc1ccnc2cc(Cl)ccc12)NCc1c(Cl)cccc1Cl [Example 12, N1-(7-Chloro-quinolin-4-yl)-N2-(2,6-dichloro-benzyl)-2-methyl-propane-1,2-diamine]		0.197 (≈ 0.482 µM)	2.3			0.0847 (≈ 0.207 µM)	98	4
Cl.Cl.Clc1ccc2c(N[C@H]3CC[C@@H](NCCc4ccccc4)CC3)ccnc2c1 [Example 13, cis-N1-(7-Chloro-quinolin-4-yl)-N4-phenethyl-cyclohexane-1,4-diamine dihydrochloride]		0.0161	6.0			0.0027	99.9	99.9
COc1cc(OC)c(CN[C@H]2CC[C@@H](Nc3ccnc4cc(Cl)ccc34)CC2)c(OC)c1.Cl.Cl [Example 14, cis-N1-(7-Chloro-quinolin-4-yl)-N4-(2,4,6-trimethoxy-benzyl)-cyclohexane-1,4-diamine dihydrochloride]		0.0284	5.9			0.0048	100	100
Cl.Cl.Clc1ccc2c(N[C@H]3CC[C@@H](NCc4c(Cl)cccc4Cl)CC3)ccnc2c1 [Example 15, cis-N1-(7-Chloro-quinolin-4-yl)-N4-(2,6-dichloro-benzyl)-cyclohexane-1,4-diamine dihydrochloride]		0.0147	3.4			0.0043		92
COc1cccc(OC)c1CN[C@H]1CC[C@@H](Nc2ccnc3cc(Cl)ccc23)CC1.Cl.Cl [Example 16, cis-N1-(7-Chloro-quinolin-4-yl)-N4-(2,6-dimethoxy-benzyl)-cyclohexane-1,4-diamine dihydrochloride]		0.017	8.5			0.002	99.8	99.9
Cl.Cl.Clc1ccc2c(N[C@H]3CC[C@@H](NCc4c(Cl)ccc(Cl)c4Cl)CC3)ccnc2c1 [Example 17, cis-N1-(7-Chloro-quinolin-4-yl)-N4-(2,3,6-trichloro-benzyl)-cyclohexane-1,4-diamine dihydrochloride]		0.0174	2.8			0.0064	32	87
COc1cc(O)c(CN[C@H]2CC[C@@H](Nc3ccnc4cc(Cl)ccc34)CC2)c(OC)c1.Cl.Cl [Example 18, cis-2-{[4-(7-Chloro-quinolin-4-ylamino)-cyclohexylamino]-methyl}-3,5-dimethoxy-phenol dihydrochloride]		0.021	3.8			0.0055	100	100
